Laboratory results reported in patent EP2221053A1, “Pharmaceutical composition comprising protein methyltransferase I inhibitors and its use for treating tumour diseases” (Albert-Ludwigs-Universität Freiburg, priority 2009, dated 2010).
Where two headings read alike, the source gives them in different places.

How the values were obtained:
SET7/9 [1] = molecular target: T1, SET7/9 (Homo sapiens, UniProt Q8WTS6); conditions: as described, Cheng et al.; cited from earlier work
T1 sequence (Q8WTS6 1-366): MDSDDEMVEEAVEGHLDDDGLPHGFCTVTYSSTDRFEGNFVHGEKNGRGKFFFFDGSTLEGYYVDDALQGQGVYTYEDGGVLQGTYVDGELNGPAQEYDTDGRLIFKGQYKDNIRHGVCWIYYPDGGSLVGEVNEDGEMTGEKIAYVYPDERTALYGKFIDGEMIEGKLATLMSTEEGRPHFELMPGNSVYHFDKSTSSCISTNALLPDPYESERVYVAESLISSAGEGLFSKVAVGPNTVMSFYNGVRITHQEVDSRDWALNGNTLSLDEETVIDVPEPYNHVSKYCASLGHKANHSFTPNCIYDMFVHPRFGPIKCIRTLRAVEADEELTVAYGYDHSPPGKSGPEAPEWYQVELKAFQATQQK

PRMT1 [2] = molecular target: T2, PRMT1 (Homo sapiens, UniProt Q99873); conditions: in-vitro, Cheng et al.; cited from earlier work
Target sequence in this assay (Q99873 whole entry, species assumed): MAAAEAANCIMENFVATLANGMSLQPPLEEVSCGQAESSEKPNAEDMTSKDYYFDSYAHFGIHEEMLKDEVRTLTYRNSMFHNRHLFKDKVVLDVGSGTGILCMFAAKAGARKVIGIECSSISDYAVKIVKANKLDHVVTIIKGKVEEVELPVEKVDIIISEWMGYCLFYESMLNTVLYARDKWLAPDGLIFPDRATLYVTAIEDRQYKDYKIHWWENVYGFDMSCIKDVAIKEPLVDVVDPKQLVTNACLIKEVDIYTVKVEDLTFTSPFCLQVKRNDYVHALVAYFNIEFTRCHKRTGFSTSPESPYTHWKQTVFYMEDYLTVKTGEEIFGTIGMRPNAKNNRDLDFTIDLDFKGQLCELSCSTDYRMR

SET7/9 [3] = molecular target: T1, SET7/9; test: In vitro selectivity test against lysine methyltransferase; assay type: biochemical
Description: Für die Enzymhemmung wurde ein Assay verwendet, der auf immobilisierten Oligopeptiden als Enzymsubstrate und den entsprechenden Enzymen beruht. Die Quantifizierung der Methylierung erfolgt über einen Antikörper gegen das Dimethylarginin und die Detektion über einen Europium gelabelten Sekundärantikörper. Die potentesten Verbindungen wurden ebenfalls in-vitro auf ihre Selektivität gegenüber SET7/9, einer Lysinmonomethyltransferase untersucht. Die Methodik der verwendeten Testverfahren ist im Detail in der Dissertation von Astrid Spannhoff, "Neue Testsysteme für Histonmethyltransferasen und Histondemethylasen", Albert-Ludwigs-Universität Freiburg, 2007 beschrieben. Der Offenbarungsgehalt dieser Arbeit wird durch Bezugnahme hier eingeschlossen.

PRMT1 [4] = molecular target: T2, PRMT1; test: Target-based virtual screening combined with biochemical test, PRMT inhibition of known inhibitors
Target sequence in this assay (Q99873 whole entry): as the sequence (Q99873 whole entry, species assumed) above

For O=C(Nc1ccc2c(O)cc(S(=O)(=O)O)cc2c1)Nc1ccc2c(O)cc(S(=O)(=O)O)cc2c1 [AMI-1], the “Selektivität gegenüber der Lysinmethyltransferase SET7/9” value (SET7/9 [1]) is listed as “selektiv”.
In the case of O.O.O.O=C([O-])c1ccccc1-c1c2cc(Br)c(=O)c(Br)c-2oc2c(Br)c([O-])c(Br)cc12.[Na+].[Na+] [AMI-5], the IC50 (PRMT1 [2]) is listed as 1.4 µM and the “Selektivität gegenüber der Lysinmethyltransferase SET7/9” value (SET7/9 [1]) is listed as “dualer Inhibitor”.
With Allantodapson the IC50 (SET7/9 [3]) was 11 µM, the “Mode of inhibition (Docking- und Kompetitionsexperimente)” value (PRMT1 [4]; conclusion from docking and competition experiments) was “zum Sustrat kompetitive Verbindungen” and the IC50 (PRMT1 [4]; inhibitors of PRMT from target-based screening) was 1.7 µM.
